Values of other authors as cited in publication PMC7515950, “Physiologically based pharmacokinetic modeling to assess metabolic drug–drug interaction risks and inform the drug label for fedratinib” (Cancer Chemotherapy and Pharmacology, 2020).
Read-outs that look alike come from different tables or passages of the source.

Columns and labels:
[1] = target: T1, OCT2 (Homo sapiens, UniProt O15244); conditions: read-out: Km of probe substrate, OCT2; from literature; ref [12]; cited from earlier work
T1 sequence (O15244 1-555): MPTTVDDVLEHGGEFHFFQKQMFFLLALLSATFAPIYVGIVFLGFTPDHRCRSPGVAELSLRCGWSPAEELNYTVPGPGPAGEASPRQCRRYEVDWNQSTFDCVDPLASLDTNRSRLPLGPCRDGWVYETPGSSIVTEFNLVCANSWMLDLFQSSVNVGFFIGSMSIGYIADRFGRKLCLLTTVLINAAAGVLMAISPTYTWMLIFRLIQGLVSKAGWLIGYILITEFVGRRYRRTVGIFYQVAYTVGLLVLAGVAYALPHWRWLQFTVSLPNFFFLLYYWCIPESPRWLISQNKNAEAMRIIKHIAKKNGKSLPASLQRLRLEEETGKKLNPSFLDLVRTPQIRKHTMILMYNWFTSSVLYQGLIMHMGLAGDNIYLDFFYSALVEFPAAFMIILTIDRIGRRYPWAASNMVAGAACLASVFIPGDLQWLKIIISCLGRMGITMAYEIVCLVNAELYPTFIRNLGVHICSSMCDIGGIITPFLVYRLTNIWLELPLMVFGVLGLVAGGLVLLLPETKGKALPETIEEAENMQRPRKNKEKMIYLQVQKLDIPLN

[2] = target: T2, OATP1B1 (Homo sapiens, UniProt Q9Y6L6); conditions: read-out: Km of probe substrate, OATP1B1; from literature; ref [14]; cited from earlier work
T2 sequence (Q9Y6L6 1-691): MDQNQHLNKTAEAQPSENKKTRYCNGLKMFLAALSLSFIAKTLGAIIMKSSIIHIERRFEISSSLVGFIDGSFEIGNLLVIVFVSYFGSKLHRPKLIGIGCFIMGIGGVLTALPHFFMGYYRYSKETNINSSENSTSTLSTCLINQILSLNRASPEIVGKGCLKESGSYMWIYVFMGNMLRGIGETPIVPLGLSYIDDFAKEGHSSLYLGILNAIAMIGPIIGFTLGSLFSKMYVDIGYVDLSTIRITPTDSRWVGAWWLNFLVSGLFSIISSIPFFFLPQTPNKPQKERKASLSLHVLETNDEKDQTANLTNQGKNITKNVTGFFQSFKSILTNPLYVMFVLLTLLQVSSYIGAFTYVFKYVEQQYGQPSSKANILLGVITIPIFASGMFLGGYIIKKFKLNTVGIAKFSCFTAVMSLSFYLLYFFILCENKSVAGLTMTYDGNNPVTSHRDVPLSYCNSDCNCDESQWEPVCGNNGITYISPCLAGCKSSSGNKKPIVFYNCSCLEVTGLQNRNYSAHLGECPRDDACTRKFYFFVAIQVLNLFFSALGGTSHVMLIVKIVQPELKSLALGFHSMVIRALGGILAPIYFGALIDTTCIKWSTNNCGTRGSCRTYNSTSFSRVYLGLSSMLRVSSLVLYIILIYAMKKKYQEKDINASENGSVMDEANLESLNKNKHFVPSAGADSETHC

[3] = cancer patients, observation, cited from earlier work; for AUC GM Ratio (90% CI) / Cmax GM Ratio (90% CI): cocktail substrate with vs without fedratinib 500 mg QD
[4] = target: T3, OCT1 (Homo sapiens, UniProt O15245); set-up: method as in earlier work; conditions: from literature; ref [11]; read-out: Km of probe substrate, OCT1; cited from earlier work
T3 construct: expressed in transfected cells; host or cells: CHO^Fi-hOCT1
T3 sequence (O15245 1-554): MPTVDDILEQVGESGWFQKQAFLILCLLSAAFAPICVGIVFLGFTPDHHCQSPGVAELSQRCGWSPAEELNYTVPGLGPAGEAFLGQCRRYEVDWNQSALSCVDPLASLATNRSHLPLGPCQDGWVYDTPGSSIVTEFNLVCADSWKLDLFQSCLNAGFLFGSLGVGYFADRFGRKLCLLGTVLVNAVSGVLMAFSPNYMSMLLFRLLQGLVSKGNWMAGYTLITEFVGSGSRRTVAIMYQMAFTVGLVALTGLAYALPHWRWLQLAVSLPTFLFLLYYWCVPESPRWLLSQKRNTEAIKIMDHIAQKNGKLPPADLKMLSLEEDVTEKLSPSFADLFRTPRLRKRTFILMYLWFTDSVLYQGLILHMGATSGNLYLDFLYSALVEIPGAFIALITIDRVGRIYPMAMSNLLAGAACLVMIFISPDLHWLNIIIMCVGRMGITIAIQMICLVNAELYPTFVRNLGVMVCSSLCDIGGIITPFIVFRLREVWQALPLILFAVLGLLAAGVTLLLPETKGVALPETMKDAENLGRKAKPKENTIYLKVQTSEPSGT

[5] = target: P-gp (Homo sapiens, UniProt P08183); conditions: read-out: Km of probe substrate, P-gp; from literature; ref [16]; cited from earlier work
[6] = target: T4, OATP1B3 (Homo sapiens, UniProt Q9NPD5); conditions: cited from earlier work
T4 sequence (Q9NPD5 1-702): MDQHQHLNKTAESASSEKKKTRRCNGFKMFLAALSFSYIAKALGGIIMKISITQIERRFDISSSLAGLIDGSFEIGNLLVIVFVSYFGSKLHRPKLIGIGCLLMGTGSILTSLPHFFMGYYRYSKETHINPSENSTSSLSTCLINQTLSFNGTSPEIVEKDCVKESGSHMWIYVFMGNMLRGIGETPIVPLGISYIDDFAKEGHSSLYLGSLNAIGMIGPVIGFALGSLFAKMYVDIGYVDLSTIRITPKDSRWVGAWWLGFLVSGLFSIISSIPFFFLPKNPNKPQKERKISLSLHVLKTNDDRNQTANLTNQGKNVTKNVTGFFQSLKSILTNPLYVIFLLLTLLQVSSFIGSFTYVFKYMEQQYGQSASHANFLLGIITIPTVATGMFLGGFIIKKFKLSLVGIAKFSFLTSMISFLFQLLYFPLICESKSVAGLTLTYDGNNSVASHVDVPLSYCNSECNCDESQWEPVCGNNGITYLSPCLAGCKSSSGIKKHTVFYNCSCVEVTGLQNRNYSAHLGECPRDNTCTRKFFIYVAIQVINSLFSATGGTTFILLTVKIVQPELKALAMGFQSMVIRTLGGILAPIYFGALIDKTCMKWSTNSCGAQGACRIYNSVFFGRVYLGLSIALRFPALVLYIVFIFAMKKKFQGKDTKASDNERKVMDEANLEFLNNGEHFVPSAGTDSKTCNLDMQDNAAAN

[7] = system: Caco-2/TC7; conditions: reference compound of the Simcyp permeability input, 7.4:7.4; cited from earlier work
[8] = cocktail substrate + fedratinib 500 mg QD, GM
[9] = cocktail substrate + fedratinib 500 mg QD, Mean (SD)
[10] = cocktail substrate alone, Mean (SD)

Sequence of P-gp (P08183 whole entry): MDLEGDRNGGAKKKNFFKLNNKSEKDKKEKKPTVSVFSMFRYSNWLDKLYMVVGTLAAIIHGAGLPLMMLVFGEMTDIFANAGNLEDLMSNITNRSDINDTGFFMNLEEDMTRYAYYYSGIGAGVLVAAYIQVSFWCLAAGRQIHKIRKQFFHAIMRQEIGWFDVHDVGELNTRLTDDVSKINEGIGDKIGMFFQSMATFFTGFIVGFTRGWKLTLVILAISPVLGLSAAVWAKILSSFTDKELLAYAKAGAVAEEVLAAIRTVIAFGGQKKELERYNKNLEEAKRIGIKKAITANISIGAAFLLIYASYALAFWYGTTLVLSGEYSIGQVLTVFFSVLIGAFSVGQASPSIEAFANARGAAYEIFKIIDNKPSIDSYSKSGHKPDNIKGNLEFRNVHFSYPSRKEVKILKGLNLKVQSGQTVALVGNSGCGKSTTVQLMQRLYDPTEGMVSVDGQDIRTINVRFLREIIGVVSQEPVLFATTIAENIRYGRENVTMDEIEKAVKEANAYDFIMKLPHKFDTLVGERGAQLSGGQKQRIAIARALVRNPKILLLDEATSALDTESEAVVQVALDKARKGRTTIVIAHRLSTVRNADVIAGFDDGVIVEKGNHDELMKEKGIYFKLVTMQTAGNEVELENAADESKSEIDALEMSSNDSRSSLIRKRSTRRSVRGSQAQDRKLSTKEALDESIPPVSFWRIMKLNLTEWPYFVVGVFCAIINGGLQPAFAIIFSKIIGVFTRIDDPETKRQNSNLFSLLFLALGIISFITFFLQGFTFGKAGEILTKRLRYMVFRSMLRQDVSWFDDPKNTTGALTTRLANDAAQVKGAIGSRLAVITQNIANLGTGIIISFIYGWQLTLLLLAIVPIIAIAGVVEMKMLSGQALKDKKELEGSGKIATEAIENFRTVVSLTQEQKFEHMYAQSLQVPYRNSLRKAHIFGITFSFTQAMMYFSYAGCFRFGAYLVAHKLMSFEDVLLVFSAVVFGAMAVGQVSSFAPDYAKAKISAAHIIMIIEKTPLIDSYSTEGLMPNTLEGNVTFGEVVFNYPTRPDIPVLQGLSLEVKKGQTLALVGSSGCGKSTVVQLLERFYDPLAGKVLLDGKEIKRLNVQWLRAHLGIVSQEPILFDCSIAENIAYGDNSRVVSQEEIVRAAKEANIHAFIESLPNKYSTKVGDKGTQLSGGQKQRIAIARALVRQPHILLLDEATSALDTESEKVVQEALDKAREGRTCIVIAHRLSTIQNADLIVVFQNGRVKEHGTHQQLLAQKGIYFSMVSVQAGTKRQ

CN(C)C(=N)N=C(N)N [Metformin]
Km [1]: 235 µM

C[C@]12CC[C@@H]3c4ccc(O)cc4CC[C@H]3[C@@H]1CC[C@@H]2O[C@@H]1O[C@H](C(=O)O)[C@@H](O)[C@H](O)[C@H]1O [Estradiol-17β-glucuronide]
Km [2]: 8.17 µM

Cc1ncc2n1-c1ccc(Cl)cc1C(c1ccccc1F)=NC2 [Midazolam]
AUC (AUCinf) [3, 8]: 148 ng·h/mL | Cmax [3, 8]: 24.2 ng/mL | AUC (AUCinf) [3, 9]: 152 (38.6) ng/mL·h | Cmax [3, 9]: 25.9 (8.75) ng/mL | Cmax ([3]; cocktail substrate alone (midazolam 2 mg, omeprazole 20 mg, metoprolol 100 mg once), GM): 13.4 ng/mL | Cmax ([3]; cocktail substrate alone (midazolam 2 mg, omeprazole 20 mg, metoprolol 100 mg once), Mean (SD)): 14.8 (7.56) ng/mL | AUC (AUCinf) ([3]; cocktail substrate alone, GM): 41.5 ng·h/mL | AUC (AUCinf) [3, 10]: 52.2 (37.9) ng/mL·h | AUC GM Ratio (90% CI) [3]: 3.84 (2.62–5.63) | Cmax GM Ratio (90% CI) [3]: 1.82 (1.49–2.21)

COCCc1ccc(OCC(O)CNC(C)C)cc1 (stereo not drawn) [Metoprolol]
AUC (AUCinf) [3, 8]: 1180 ng·h/mL | Cmax [3, 8]: 199 ng/mL | AUC (AUCinf) [3, 9]: 1460 (938) ng/mL·h | Cmax [3, 9]: 221 (106) ng/mL | AUC (AUCinf) ([3]; cocktail substrate alone, GM): 731 ng·h/mL | AUC (AUCinf) [3, 10]: 880 (545) ng/mL·h | AUC GM Ratio (90% CI) [3]: 1.77 (1.27–2.47) | Cmax GM Ratio (90% CI) [3]: 1.60 (1.25–2.05) | AUC GM Ratio (90% CI) ([3]; listed as metoprolol): 1.77 | Cmax GM Ratio (90% CI) ([3]; listed as metoprolol): 1.60

CC[N+](CC)(CC)CC [TEA]
Km [4]: 296 µM

C[C@H]1O[C@@H](O[C@H]2[C@@H](O)C[C@H](O[C@H]3[C@@H](O)C[C@H](O[C@H]4CC[C@@]5(C)[C@H](CC[C@@H]6[C@@H]5C[C@@H](O)[C@]5(C)[C@@H](C7=CC(=O)OC7)CC[C@]65O)C4)O[C@@H]3C)O[C@@H]2C)C[C@H](O)[C@@H]1O [digoxin]
Km [5]: 385 µM

CCK8
Km [6]: 3.8 µM

COc1ccc2[nH]c([S+]([O-])Cc3ncc(C)c(OC)c3C)nc2c1 (stereo not drawn) [Omeprazole]
AUC (AUCinf) [3, 8]: 4690 ng·h/mL | Cmax [3, 8]: 537 ng/mL | AUC (AUCinf) [3, 9]: 5950 (3560) ng/mL·h | Cmax [3, 9]: 615 (286) ng/mL | AUC (AUCinf) ([3]; cocktail substrate alone, GM): 1590 ng·h/mL | AUC (AUCinf) [3, 10]: 2210 (1740) ng/mL·h | AUC GM Ratio (90% CI) [3]: 2.82 (2.26–3.53) | Cmax GM Ratio (90% CI) [3]: 1.12 (0.81–1.53) | AUC GM Ratio (90% CI) ([3]; listed as omeprazole): 2.82 | Cmax GM Ratio (90% CI) ([3]; listed as omeprazole): 1.12

CC(C)NCC(O)COc1cccc2ccccc12 (stereo not drawn) [Propranolol]
Reference Compound Value (PCaco-2) [7]: 43.000 10E-06 cm/s
